Assay results from paper PMC10011588, “Conformational transitions and allosteric modulation in a heteromeric glycine receptor” (Nature Communications, 2023).

Columns and labels:
[1] = target: T1, α1βB glycine receptor (ZF-α1GlyR subunit) (Danio rerio, UniProt O93430+Q6DC22); assay: cryo-EM structure, […] Å ([…] glycine); EC50 from whole-cell currents in HEK […] T cells (homomeric α[…]); type: cell-based; set-up: gene glra1; full-length α1GlyR (NP_571477.1) with C-terminal thrombin site and 8xHis tag, 4α:1β heteropentamer; with βBGlyR (glrbb, NP_001003587.1); rat gephyrin E domain co-purified (not resolved)
T1 sequence (O93430 25-444): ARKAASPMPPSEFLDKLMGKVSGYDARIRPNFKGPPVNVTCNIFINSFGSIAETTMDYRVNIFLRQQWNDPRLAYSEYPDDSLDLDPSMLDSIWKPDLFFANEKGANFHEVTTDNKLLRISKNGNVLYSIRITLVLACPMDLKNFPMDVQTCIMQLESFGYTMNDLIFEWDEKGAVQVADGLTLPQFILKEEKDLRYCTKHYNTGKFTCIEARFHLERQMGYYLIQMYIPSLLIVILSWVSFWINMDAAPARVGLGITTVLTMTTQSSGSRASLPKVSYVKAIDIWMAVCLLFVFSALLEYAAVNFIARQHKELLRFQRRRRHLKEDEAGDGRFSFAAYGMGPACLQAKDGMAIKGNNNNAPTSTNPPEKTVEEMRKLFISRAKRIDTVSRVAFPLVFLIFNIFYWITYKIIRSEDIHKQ
T1 sequence (Q6DC22 23-494): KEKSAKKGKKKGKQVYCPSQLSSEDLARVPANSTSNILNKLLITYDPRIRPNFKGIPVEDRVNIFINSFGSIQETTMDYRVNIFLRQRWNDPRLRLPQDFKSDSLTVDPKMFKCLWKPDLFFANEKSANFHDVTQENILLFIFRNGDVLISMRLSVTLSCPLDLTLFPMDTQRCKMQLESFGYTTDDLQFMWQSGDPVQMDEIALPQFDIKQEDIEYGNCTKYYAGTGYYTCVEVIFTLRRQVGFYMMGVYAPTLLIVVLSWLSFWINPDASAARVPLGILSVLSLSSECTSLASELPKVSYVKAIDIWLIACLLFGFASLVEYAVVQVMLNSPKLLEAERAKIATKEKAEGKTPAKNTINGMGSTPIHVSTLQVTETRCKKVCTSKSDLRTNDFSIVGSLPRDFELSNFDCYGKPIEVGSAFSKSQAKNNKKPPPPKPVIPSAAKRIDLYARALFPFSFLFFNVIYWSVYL
Text: The carboxyl oxygens form hydrogen bonds with αS153 (βS173) on Loop E

[2] = target: T1, α1βB glycine receptor (ZF-α1GlyR subunit); set-up: gene glra1
[3] = target: T2, zebrafish glycine receptor βB subunit (ZF-βBGlyR), full length (zebrafish, UniProt Q6DC22 1-494, N-glycans at N54 and N241); assay: cryo-EM structure; αβGlyR-Geph-E sample co-expressed in Sf9 and co-purified in DDM, vitrified on graphene-oxide grids with 100 µM strychnine, 1 mM glycine, or 1 mM glycine and 20 µM ivermectin; no fiduciary marker; conditions: partners not purified
T2 construct: glycine receptor βB subunit, zebrafish, NCBI NP_001003587.1, codon-optimised full-length gene; One copy stands in the αβGlyR heteropentamer (4α:1β); also called βGlyR; GlyRβB; source: Sf9 (ExpiSf9) cells, baculovirus (pFastBacDual, polyhedrin promoter), co-expressed with α1GlyR and Geph-E
T2 sequence (looked up): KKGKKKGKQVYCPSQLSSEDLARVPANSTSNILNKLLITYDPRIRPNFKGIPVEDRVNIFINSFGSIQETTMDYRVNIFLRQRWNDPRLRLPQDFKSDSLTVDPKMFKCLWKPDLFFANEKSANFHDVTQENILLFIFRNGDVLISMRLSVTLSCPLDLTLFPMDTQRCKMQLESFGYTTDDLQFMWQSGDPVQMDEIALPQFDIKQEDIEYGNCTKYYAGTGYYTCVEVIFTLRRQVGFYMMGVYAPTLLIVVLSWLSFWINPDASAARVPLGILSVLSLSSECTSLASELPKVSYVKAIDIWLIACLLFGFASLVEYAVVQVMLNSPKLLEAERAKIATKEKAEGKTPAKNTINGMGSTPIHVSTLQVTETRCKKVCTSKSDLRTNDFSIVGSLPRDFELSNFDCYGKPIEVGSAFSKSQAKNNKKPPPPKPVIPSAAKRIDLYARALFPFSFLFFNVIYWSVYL

NCC(=O)O [glycine] showed an EC50 [1] of 63 ± 13 µM.

For O=C1C[C@@H]2OCC=C3CN4CC[C@]56c7ccccc7N1[C@H]5[C@H]2[C@H]3C[C@H]46 [strychnine], the “cryo-EM structure, 2.97 Å (100 μM strychnine)” value [2] was “Strychnine density is well-defined in αβGlyR-Stry and is essentially in the same orientation across all five subunits”.

B1: zebrafish glycine receptor α1 subunit (ZF-α1GlyR), full length (receptor, UniProt O93430 25-444, looked up)
chain: T1 sequence (O93430 25-444)
modifications: N-glycan at N62
notes: glycine receptor α1 subunit, zebrafish, NCBI NP_571477.1, codon-optimised full-length gene; Four copies stand in the αβGlyR heteropentamer (4α:1β); The full-length gene was expressed; also called αGlyR; GlyRα1; source: Sf9 (ExpiSf9) cells, baculovirus (pFastBacDual, p10 promoter), co-expressed with βBGlyR and Geph-E; not shown: 8x His (after a thrombin site LVPRGS), C-terminal, kept
B1 was tested, and the “stoichiometry N” value [3] was 4 α per β.
